Reference: publication PMC9014415, “Repositioning of a Diaminothiazole Series Confirmed to Target the Cyclin-Dependent Kinase CRK12 for Use in the Treatment of African Animal Trypanosomiasis” (Journal of Medicinal Chemistry, 2022)

Experiments:
[1] = Bovine hepatocyte stability; format: in vitro ADME; details: intrinsic clearance
Experimental: collagen coated cell culture plates for 10 minutes at 37 °C, 5% CO2. Upon addition of an equal volume of supplemented WME containing 1 µM test compound, an aliquot of incubation solution was removed to acetonitrile containing internal standard (final concentration 0.5 µM test compound and a cell density of 0.25 million cells/mL). Similarly, aliquots were removed at 3, 6, 9, 15, 30, 45, 60, 90 and 120 min. 100 µL of 80:20 water:acetonitrile was added to all samples and the analysis plate was centrifuged (10 min, 1,665 g, RT) prior to injection and analysis of samples by UPLC-MS/MS. The response (area ratio of test compound relative to internal standard) was plotted against time using an exponential decay model and rate of disappearance calculated. Hepatocyte CLint (mL/min/10^6 cells) was scaled to in vivo CLint (ml/min/g Liver) using the hepato-cellularity scaling factor of 120 x […]
(b) Bovine hepatocyte stability. Freshly isolated female bovine (Prim’Holstein) hepatocytes were supplied by Biopredic InternationalTM. […]
of 80:20 water:acetonitrile was added to all samples and the analysis plate was centrifuged (10 min, 1,665 g, RT) prior to injection and analysis of samples by UPLC-MS/MS. The response (area ratio of test compound to internal standard) was plotted against time using an exponential decay model and rate of disappearance calculated. […]

[2] = test system: T. congolense KONT 2/133; test: Cattle efficacy for compound 1, SC (Clinvet); format: in vivo, Trypanosoma congolense; details: for Animals negative for parasites / Animals positive for parasites: 5 mg/kg SC twice 12 h apart
Description: However, following the cessation of treatment, parasitaemia quickly re-emerged to such an extent that after 4 days, all calves were positive. It should be noted that in this study, calves were infected with a highly virulent T. congolense isolate known to be resistant to established anti-trypanosomal agents diminazene and isometamidium. Testing compounds in this model represents a rigorous test of efficacy; thus, the observed reduction in parasite numbers in calves dosed with compound 1 was very encouraging. […]
3.3 Cattle efficacy for compound 1 (Clinvet)
In each of the cattle efficacy studies (3.3, 3.4 and 3.5), efficacy was assessed primarily on absence of recrudescence of parasitaemia for 100 days after treatment administration together with improvements in Packed Cell Volume, body weight and clinical signs of infected compared with uninfected animals. Assessment of parasitaemia was based on phase contrast buffy coat examinations and confirmation by PCR at 100 d.
Friesian-Holstein calves, weaned for at least 2 months and with a minimum age of 4 months, housed in a fly-proof building, were infected with Trypanosoma conglense (savannah) KONT 2/133, at a dose of 110,000 parasites (study day 0) via IV infusion. The parasites were obtained from a donor calf. This isolate is resistant to diminazene (20 mg/kg) and isometamidium (1 mg/kg) in cattle, and diminazene (7 mg/kg) and isometamidium (>1 mg/kg) in mice. Calves were parasitaemic by study day 6. Calves (n = 5) were treated with compound 1 (5 mg/kg, SC, twice 12 h apart) on study […]
day at 25 mg/ml in NMP/ 2-pyrrolidinone/ PEG400 water 10/40/30/20. Control groups were comprised of un-infected calves, infected but un-treated calves (n = 6) and calves treated with diminazene (n = 3) or isometamidium (n = 3). The calves were randomised to treatments. Calves were monitored daily for parasitaemia and packed cell volume (PCV) via blood sampling and through […]
One day after treatment, 80% of the animals in the treatment group were negative for parasites.
After 3 d, 100% of the animals in the treatment groups were negative for parasites. After 5 d, 40% of the animals were positive for parasites. […]

[3] = test system: bloodstream T. brucei resistant lines R1-R3; test: Sensitivity of compound 2-resistant T. brucei lines compared to wild-type; format: cell-based, Trypanosoma brucei
Experimental: To gain further insight into the molecular target(s) of this series, resistance was generated against compound 2 in a drug-sensitive clonal line of bloodstream T. brucei. Trypanosomes were cultured in the continuous presence of compound 2 for a total of 122 days. […] Following drug selection, resistant parasites were cloned by limiting dilution. The relative sensitivities of these cloned cell lines were established and compared to that of wild-type parasites. Resistant lines R1 and R3 were 10-fold resistant, while R2 was 90-fold resistant to compound 2 (Figure 4A). […] In addition, all three clones had lost a significant part of chromosome 10 and gained additional copies of a region of chromosome 8. All three resistant lines carried a mutation in Tb927.4.4590, a gene encoding a non-essential putative kinase and in Tb927.11.10300, encoding a hypothetical protein. Of particular note, all three clones (R1–3) shared a non-synonymous substitution (Gly492Ala) in Tb927.11.12310, the gene encoding CRK12. In addition, R2 harbored a second non-synonymous substitution (Leu482Phe) in CRK12 (Table S10). […]
in cattle). Blood from the donor animals, diluted with phosphate buffered glucose was used to infect recipient animals IV via the jugular vein. Infection was with approximately 100,000 fresh viable parasites. The compounds were given IM. Each injection was up to 10 mL and given in neck in the following order: left anterior third, right anterior third, left posterior third and right posterior third.
Animals over 240 kg required a fifth injection site for the IVP, and this was given in the left or right hind leg. Cattle were randomised to treatments. Parasitaemia was monitored 3 times per calendar week, though collection of blood and assessment of clinical symptoms. Blood samples were also […]
treatment). Cattle were also monitored for PCV, clinical symptoms, body weight and temperature […]
4. Mode of action studies
4.1 Resistant line generation […]
Sequencing reads (100 bp) were aligned to the Trypanosoma brucei TREU927 genome (v39; tritrypDB) using Bowtie210 and Samtools11 software. […]

[4] = 5 mg/kg SC given twice at 12 h intervals

Row | SMILES | Bovine Hepatocyte Cli [1] | Parasitaemia in calves [2, 4] | Time after cessation of treatment until all calves were positive [2, 4] [days] | Animals negative for parasites ([2]; after 3 d) [%] | Animals positive for parasites ([2]; after 5 d) [%] | Animals positive for parasites ([2]; after 6 d) [%] | Animals positive for parasites ([2]; after 8 days) [%] | Animals negative for parasites ([2]; one day after treatment) [%] | Resistance compared to wild-type ([3]; resistant line R1) [fold] | Resistance compared to wild-type ([3]; resistant line R2) [fold] | Resistance compared to wild-type ([3]; resistant line R3) [fold]
1 | CC(C)CS(=O)(=O)N[C@H]1CC[C@H](Nc2nc(N)c(C(=O)c3c(F)cccc3F)s2)CC1 [Compound 1, N-((trans)-4-((4-Amino-5-(2,6-difluorobenzoyl)thiazol-2-yl)amino)cyclohexyl)-2-methylpropane-1-sulfonamide] | <0.5 / 0.5 mL/min/g | suppressed below the level of detection | 4 | 100 | 40 | 80 | 100 | 80 | – | – | –
2 | CC(C)CS(=O)(=O)N[C@H]1CC[C@H](Nc2nc(N)c(C(=O)c3c(F)cc(CN(C)C)cc3F)s2)CC1 [Compound 2, N-(trans)-[4-[[4-Amino-5-[4-(dimethylaminomethyl)-2,6-difluoro-benzoyl]thiazol-2-yl]amino]cyclohexyl]-2-methyl-propane-1-sulfonamide] | – | – | – | – | – | – | – | – | 10 | 90 | 10
